Results reported in ChEMBL document CHEMBL4229455, “Synthesis and anticancer activity of novel bisindolylhydroxymaleimide derivatives with potent GSK-3 kinase inhibition” (Bioorg Med Chem, 2018).

Experiments:
[1] = target: T1, Serine/threonine-protein kinase haspin (Homo sapiens, UniProt Q8TF76); experiment: Inhibition of recombinant human haspin kinase domain expressed in bacteria using histone H3 (1 to 21 residues) peptide as substrate in presence of [gamma-33P]ATP
T1 sequence (Q8TF76 whole entry): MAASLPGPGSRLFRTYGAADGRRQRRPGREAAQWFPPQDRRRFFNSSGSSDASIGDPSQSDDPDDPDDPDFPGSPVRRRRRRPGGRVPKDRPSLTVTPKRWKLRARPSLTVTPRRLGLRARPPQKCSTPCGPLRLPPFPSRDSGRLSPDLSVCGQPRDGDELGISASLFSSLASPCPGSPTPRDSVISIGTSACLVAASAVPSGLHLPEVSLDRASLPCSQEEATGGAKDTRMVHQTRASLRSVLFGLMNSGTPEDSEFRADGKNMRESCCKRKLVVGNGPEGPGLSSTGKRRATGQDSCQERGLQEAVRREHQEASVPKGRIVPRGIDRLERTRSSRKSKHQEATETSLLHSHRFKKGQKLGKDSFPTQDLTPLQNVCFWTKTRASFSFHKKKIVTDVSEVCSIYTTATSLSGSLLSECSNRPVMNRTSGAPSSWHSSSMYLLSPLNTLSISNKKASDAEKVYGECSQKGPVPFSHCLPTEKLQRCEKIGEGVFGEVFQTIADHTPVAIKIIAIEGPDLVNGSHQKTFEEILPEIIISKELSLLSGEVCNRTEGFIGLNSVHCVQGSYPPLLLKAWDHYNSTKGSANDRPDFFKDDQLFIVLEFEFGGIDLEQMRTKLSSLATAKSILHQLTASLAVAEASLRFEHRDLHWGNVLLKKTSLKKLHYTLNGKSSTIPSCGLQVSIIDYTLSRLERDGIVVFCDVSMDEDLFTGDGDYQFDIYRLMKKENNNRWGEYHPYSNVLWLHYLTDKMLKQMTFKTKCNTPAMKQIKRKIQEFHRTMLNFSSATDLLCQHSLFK

[2] = target: Cyclin-dependent kinase 5/CDK5 activator 1 (Homo sapiens, UniProt Q00535); experiment: Inhibition of recombinant full length human CDK5/p25 expressed in bacteria using histone H1 as substrate in presence of [gamma-33P]ATP
Sequence of Cyclin-dependent kinase 5/CDK5 activator 1 (Q00535 whole entry, the tested form may be a part): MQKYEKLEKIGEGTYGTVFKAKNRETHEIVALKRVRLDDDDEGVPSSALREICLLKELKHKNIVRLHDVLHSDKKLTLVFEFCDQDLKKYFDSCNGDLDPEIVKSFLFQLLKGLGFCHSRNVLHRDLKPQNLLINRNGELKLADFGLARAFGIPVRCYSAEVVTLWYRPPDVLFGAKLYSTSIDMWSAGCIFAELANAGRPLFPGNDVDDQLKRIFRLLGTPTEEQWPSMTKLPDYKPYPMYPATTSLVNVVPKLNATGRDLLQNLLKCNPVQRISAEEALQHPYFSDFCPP
Sequence of Cyclin-dependent kinase 5/CDK5 activator 1 (Q15078 whole entry, further chain, the tested form may be a part): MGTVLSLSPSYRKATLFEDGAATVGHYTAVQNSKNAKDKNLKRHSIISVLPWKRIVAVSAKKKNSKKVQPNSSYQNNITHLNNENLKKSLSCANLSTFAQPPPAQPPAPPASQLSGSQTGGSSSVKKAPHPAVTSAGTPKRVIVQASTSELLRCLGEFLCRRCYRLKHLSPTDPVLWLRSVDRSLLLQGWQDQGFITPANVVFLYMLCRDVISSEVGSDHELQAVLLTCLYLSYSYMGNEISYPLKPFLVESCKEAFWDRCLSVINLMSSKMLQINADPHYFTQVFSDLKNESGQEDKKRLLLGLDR

[3] = target: Dual specificity tyrosine-phosphorylation-regulated kinase 1A (Rattus norvegicus, UniProt Q63470); experiment: Inhibition of recombinant rat DYRK1A kinase domain expressed in bacteria using KKISGRLSPIMTEQ as substrate in presence of [gamma-33P]ATP
[4] = target: Serine/threonine-protein kinase pim-1 (Homo sapiens, UniProt P11309); experiment: Inhibition of recombinant full length human PIM1 expressed in bacteria using histone H1 as substrate in presence of [gamma-33P]ATP
Sequence of Serine/threonine-protein kinase pim-1 (P11309 whole entry, the tested form may be a part): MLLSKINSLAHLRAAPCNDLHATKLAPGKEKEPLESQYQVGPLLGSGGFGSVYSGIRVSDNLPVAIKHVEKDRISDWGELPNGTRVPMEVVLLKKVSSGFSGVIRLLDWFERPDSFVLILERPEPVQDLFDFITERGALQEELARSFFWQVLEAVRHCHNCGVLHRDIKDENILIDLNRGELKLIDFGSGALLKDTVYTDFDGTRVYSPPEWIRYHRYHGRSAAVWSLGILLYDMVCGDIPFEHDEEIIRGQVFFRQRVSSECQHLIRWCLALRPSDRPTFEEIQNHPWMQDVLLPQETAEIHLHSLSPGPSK

[5] = target: T2, Serine/threonine-protein kinase haspin (Homo sapiens) (UniProt Q8TF76); experiment: Inhibition of recombinant human haspin kinase domain expressed in bacteria assessed as residual activity at 10 uM using histone H3 (1 to 21 residues) peptide as substrate in presence of [gamma-33P]ATP
T2 sequence (whole entry): T1 sequence (Q8TF76 whole entry)

[6] = target: Cyclin-dependent kinase 5/CDK5 activator 1 (Homo sapiens) (UniProt Q00535+Q15078); experiment: Inhibition of recombinant full length human CDK5/p25 expressed in bacteria assessed as residual activity at 10 uM using histone H1 as substrate in presence of [gamma-33P]ATP
Sequence of Cyclin-dependent kinase 5/CDK5 activator 1 (Homo sapiens) (Q00535 whole entry): as the sequence (Q00535 whole entry, the tested form may be a part) above
Sequence of Cyclin-dependent kinase 5/CDK5 activator 1 (Homo sapiens) (Q15078 99-307 partner limits assumed): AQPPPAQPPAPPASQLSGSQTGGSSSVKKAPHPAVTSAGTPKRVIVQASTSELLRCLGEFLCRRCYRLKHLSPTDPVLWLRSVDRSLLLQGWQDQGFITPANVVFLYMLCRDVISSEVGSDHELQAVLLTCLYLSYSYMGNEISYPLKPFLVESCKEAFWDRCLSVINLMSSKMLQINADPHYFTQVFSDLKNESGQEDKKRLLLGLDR

[7] = target: CDK9/cyclin T1 (Homo sapiens) (UniProt O60563+P50750); experiment: Inhibition of recombinant full length human CDK9/cyclin T expressed in baculovirus infected Sf9 insect cells assessed as residual activity at 10 uM using YSPTSPSYSPTSPSYSPTSPSKKKK as substrate in presence of [gamma-33P]ATP
[8] = target: Glycogen synthase kinase-3 (Sus scrofa) (UniProt B2LUN4+I6LNT8); experiment: Inhibition of domestic porcine brain full length GSK-3alpha/beta assessed as residual activity at 10 uM using GS-1 as substrate in presence of [gamma-33P]ATP; settings: Sus scrofa domesticus
[9] = species on record: Sus scrofa domesticus; experiment: Inhibition of domestic porcine brain full length […] assessed as residual activity at 10 uM using RRKHAAIGSpAYSITA as substrate in presence of [gamma-33P]ATP
[10] = system: K562; experiment: Cytotoxicity against human K562 cells assessed as cell growth at 10 uM after 48 hrs by SRB assay relative to control; assay type: functional; settings: K562, 48 h, read-out: Activity
[11] = system: RPMI-8226; experiment: Cytotoxicity against human RPMI8226 cells assessed as cell growth at 10 uM after 48 hrs by SRB assay relative to control; assay type: functional; settings: RPMI-8226, 48 h, read-out: Activity
[12] = system: HOP-62; experiment: Cytotoxicity against human HOP62 cells assessed as cell growth at 10 uM after 48 hrs by SRB assay relative to control; assay type: functional; settings: HOP-62, 48 h, read-out: Activity
[13] = system: HCC 2998; experiment: Cytotoxicity against human HCC2998 cells assessed as cell growth at 10 uM after 48 hrs by SRB assay relative to control; assay type: functional; settings: HCC 2998, 48 h, read-out: Activity
[14] = system: SF-295; experiment: Cytotoxicity against human SF295 cells assessed as cell growth at 10 uM after 48 hrs by SRB assay relative to control; assay type: functional; settings: SF-295, 48 h, read-out: Activity
[15] = system: SNB-75; experiment: Cytotoxicity against human SNB75 cells assessed as cell growth at 10 uM after 48 hrs by SRB assay relative to control; assay type: functional; settings: SNB-75, 48 h, read-out: Activity
[16] = system: MDA-MB-435; experiment: Cytotoxicity against human MDA-MB-435 cells assessed as cell growth at 10 uM after 48 hrs by SRB assay relative to control; assay type: functional; settings: MDA-MB-435, 48 h, read-out: Activity
[17] = system: UO-31; experiment: Cytotoxicity against human UO31 cells assessed as cell growth at 10 uM after 48 hrs by SRB assay relative to control; assay type: functional; settings: UO-31, 48 h, read-out: Activity
[18] = system: PC-3; experiment: Cytotoxicity against human PC3 cells assessed as cell growth at 10 uM after 48 hrs by SRB assay relative to control; assay type: functional; settings: PC-3, 48 h, read-out: Activity
[19] = system: MCF7; experiment: Cytotoxicity against human MCF7 cells assessed as cell growth at 10 uM after 48 hrs by SRB assay relative to control; assay type: functional; settings: MCF7, 48 h, read-out: Activity
[20] = system: NCI-H322M; experiment: Cytotoxicity against human NCI-H322M cells assessed as cell growth at 10 uM after 48 hrs by SRB assay relative to control; assay type: functional; settings: read-out: Activity
[21] = system: COLO 205; experiment: Cytotoxicity against human COLO205 cells assessed as cell growth at 10 uM after 48 hrs by SRB assay relative to control; assay type: functional; settings: COLO 205, 48 h, read-out: Activity
[22] = system: 786-0; experiment: Cytotoxicity against human 786-O cells assessed as cell growth at 10 uM after 48 hrs by SRB assay relative to control; assay type: functional; settings: 786-0, 48 h, read-out: Activity
[23] = system: Malme-3M; experiment: Cytotoxicity against human MALME-3M cells assessed as cell growth at 10 uM after 48 hrs by SRB assay relative to control; assay type: functional; settings: read-out: Activity

SMILES	IC50 [1]	IC50 [2]	IC50 [3]	IC50 [4]	Activity [5]	Activity [6]	Activity [7]	Activity [8]	Activity [9]	growth at 10 µM [10]	growth at 10 µM [11]	growth at 10 µM [12]	growth at 10 µM [13]	growth at 10 µM [14]	growth at 10 µM [15]	growth at 10 µM [16]	growth at 10 µM [17]	growth at 10 µM [18]	growth at 10 µM [19]	growth at 10 µM [21]	further results
O=C(O)CCCCCn1cc(C2=C(c3c[nH]c4ccccc34)C(=O)N(O)C2=O)c2ccccc21	> 10 µM	> 10 µM	2 µM	> 10 µM	113%	60%	19%	8%	83%	94.8%	101%	86.8%	119%	105%	86%	102%	61%	84.9%	102%	102%	growth at 10 µM [20]: 101%; growth at 10 µM [22]: 93%
N#CCCCCCn1cc(C2=C(c3cn(CCCCCC#N)c4ccccc34)C(=O)N(O)C2=O)c2ccccc21	> 10 µM	> 10 µM	> 10 µM	> 10 µM	99%	75%	55%	5%	67%	15 to 33.9%	39.1%	45 to 66.5%	59 to 99.6%	35 to 85%	14 to 67.7%		23 to 43.8%	29 to 70.3%	14 to 39.9%	74 to 91.7%	growth at 10 µM [23]: 55%; growth at 10 µM [20]: 45 to 92.3%; growth at 10 µM [22]: 51 to 78.7%
Cn1cc(C2=C(c3cn(CCCCCC#N)c4ccccc34)C(=O)N(O)C2=O)c2ccccc21	> 10 µM	> 10 µM	5 µM	> 10 µM	114%	49%	17%	8%	88%	78.8%	71.2%	89.6%	111%	107%	68%	68.1%	50.8%	80.5%	77.7%	92.6%	growth at 10 µM [20]: 98%; growth at 10 µM [22]: 83.7%
O=C1C2=C(C(=O)N1O)c1cn(c3ccccc13)CCCCCCn1cc2c2ccccc21	> 10 µM	> 10 µM	> 10 µM	> 10 µM	134%	91%	87%	48%	103%	109%	92.9%	107%	110%	107%	91.4%	111%	80.3%	95.8%	99.6%	110%	growth at 10 µM [23]: 105%; growth at 10 µM [20]: 108%
Cn1cc(C2=C(c3cn(C)c4ccccc34)C(=O)N(O)C2=O)c2ccccc21	> 10 µM	> 10 µM	> 10 µM	> 10 µM	118%	82%	38%	-13%	104%	100%	79.3%	97%	106%	104%	90.3%	94.9%	74.2%		86.2%	104%	growth at 10 µM [23]: 118%; growth at 10 µM [20]: 103%; growth at 10 µM [22]: 103%
N#CCCCCCn1cc(C2=C(c3cn(CCCCCC#N)c4ccccc34)C(=O)NC2=O)c2ccccc21	> 10 µM	> 10 µM	0.62 µM	> 10 µM	134%	46%	9%	11%	108%		86.8%	118%	107%	66.2%	47.2%	105%	72.7%	58%	48.9%	73.8%	growth at 10 µM [23]: 121%; growth at 10 µM [20]: 103%
Cn1cc(C2=C(c3cn(C)c4ncccc34)C(=O)NC2=O)c2ccccc21	> 10 µM	0.8 µM	> 10 µM	2 µM	101%	-1%	-10%	-21%	76%	16 to 19.9%	45.4%	21 to 40.6%	30 to 58.9%	9.52%		12.9 to 14%	12 to 22.6%	23 to 44.6%	13 to 22.7%	-63%	growth at 10 µM [23]: 20.3 to 29%; growth at 10 µM [22]: 12%
Cn1cc(C2=C(c3cn(CCCCCC(=O)O)c4ccccc34)C(=O)N(O)C2=O)c2ccccc21	> 10 µM	> 10 µM	1 µM	> 10 µM	103%	34%	15%	2%	80%	103%	96.8%	92%	110%	102%	86.5%	102%	63.2%	76.6%	90%	109%	growth at 10 µM [20]: 99.8%; growth at 10 µM [22]: 96.3%
